Tests used:
[1] = system: DACT1 and DACT2 promoters; assay: Methylation specific PCR (MSP) of DACT promoters after 5-AzaC; format: cell-based, human; conditions: HCT116 cells
Excerpt: (§1) A: Hierarchical clustering of Wnt inhibitors (upper) and Wnt/β-catenin target genes (lower) in human colorectal tumors (T) and matched normal mucosa (N). White signals in the upper panel indicate above-mean expression; white signals in the lower panel indicate below-mean expression. B: RT-PCR analysis of SFRP1 and DACT1, 2 and 3 from random-selected 8 pairs of human colorectal tumor and matched mucosa. C: Methylation status of SFRP1 and DACT3 in 8 tumors determined by methylation specific PCR (MSP) assay. M1, M2, M3 and M4 represent the examined PCR regions covering the entire CpG island of DACT3 promoter. D: RT-PCR analysis of SFRP1 and DACT1, 2 and 3 in a panel of colorectal cancer cell lines compared to the normal tissue. E: Methylation status of SFRP1 and DACT1, 2 and 3 in colorectal cancer cell lines. F: Determination of methylation status of CpG sites by sequencing of bisulphite-modified DNA from normal and colorectal cancer cell lines. Arrows indicate the transcription start sites. Open cycles represent unmethylated CpGs; closed cycles denote methylated CpGs. […]
The CpG island DNA methylation status was determined by PCR analysis after bisulfited modification and followed by methylation-specific PCR (MSP) and bisulfite genomic sequencing (BGS) (Yoshikawa, H., et al., Nat Genet (2001) 28, 29-35). […]

[2] = system: SFRP1, DACT1, DACT2, DACT3; assay: RT-PCR analysis of SFRP1 and DACT1, 2 and 3 after 5-AzaC; format: cell-based, human; conditions: HCT116 cells, 5-AzaC 5 μM for 3 days
Excerpt: as §1, with “CpGs. G: MSP analysis of DACT1, 2 and 3 promoters in HCT116 cells untreated or treated with 5-AzaC and in HCT116-DNMT1/DNMT3b−/− (DKO) cells. H: RT-PCR analysis of SFRP1 and DACT1, 2 and 3 in HCT116 and DLD1 cells treated with 5-AzaC (5 μM) for 3 days and in DKO cells.” for “CpGs.”

histone modifications = assay: Immunoblotting of bulk histone modifications in HT29 and SW480 cells; format: cell-based, human
Protocol: FIG. 5. Effects of combination of DZNep and TSA on DACT3 and histone modifications. A: DACT3 mRNA expression analysis using Illumina Beadarray in DLD1 cells treated with 5 μM DZNep, 5 μM 5-AzaC, 200 nM TSA or their combinations. The data shown represents Mean±SD of three independent experiments. B: Indicated colorectal cancer cell lines were treated with DZNep, TSA or both. RNA was harvested and subjected to array analysis (1: DCAT2, 2: DACT2, 3: DCAT3, 4: DKK4, 5: DKK3, 6: DKKL1, 7: DKK2, 8: DKK3, 9: DKK1, 10: SFRP4, 11: SFRP2, 12: SFRP5, 13: SFRP3, 14: SFRP1). Changes of expression of known Wnt/β-catenin antagonists are shown. C: Immunoblotting analysis of bulk histone modifications induced by DZNep, TSA or both in HT29 cells and SW480 cells. D: ChIP analysis of indicated the changes of histone marks at the DACT1 and DACT3 loci in HT29 cells untreated (white bars) or treated with DZNep and TSA (black bars). The values represent the normalized enrichments against the changes of a low background region before and after the drug treatment. The data represent Mean±SD of three independent experiments.
Human tissue samples were obtained from Singapore Tissue Network using protocols approved by institutional Review Board of National University of Singapore; informed consent was obtained from each individual who provided the tissues. The colorectal cancer cell lines and non-transformed cell lines used in this study were purchased from the American Type Culture Collection (Manassas, Va.). HCT116 cells with genetic disruption of DNMT1 (DNA methyltransferase 1) and DNMT3B (DNA methyltransferase 3B) (HCT116 DKO) were kindly provided by Dr. Bert Vogelstein (Johns Hopkins University, MD). For drug treatment, cells were seeded the day before the drug treatment. Cells were treated with 5 μM 3-Deazaneplanocin A (DZNep) (obtained from Dr. Victor E. Marquez at National Cancer Institute, USA) or 5 μM 5-aza-2′-deoxycytidine (5-AzaC; Sigma) for 72 hours and Trichostatin A (TSA; Cell Signaling) at 100-200 nM for 24 hours. […]

DACT3, DVL2, β-catenin = assay: Immunoblot analysis of DACT3, DVL2 and β-catenin in SW480 and DLD1 cells; format: cell-based, human; conditions: DZNep 5 μM, TSA 100 nM
Protocol: FIG. 6. Combination of DZNep and TSA results in blockade of Wnt/β-catenin signaling and massive apoptosis in colorectal cancer cells. A: Immunoblot analysis of DACT3, DVL2, total β-catenin, and non-phosphorylated β-catenin (Active-β-catenin) in SW480 and DLD1 cells treated with DZNep (5 μM), TSA (100 nM) or both. B: Immunofluorescent images of DLD1 and SW480 cells treated with DZNep/TSA. β-catenin staining is red, nuclear staining is green (DRAQ5). C: Indicated colorectal cancer cell lines were treated as above; RNA was harvested and subjected to array analysis. Changes of expression of known Wnt/β-catenin target genes were shown using gene clustering program. […] D: Numeric values of data depicted in FIG. 6C (D+T=DZNep+TSA). E: DLD1 and HT29 cells were treated as in A, and cell death was determined by PI staining and FACS analysis. The data represent Mean±SD of three independent experiments. F: HT29 cells were treated as in A, and Caspase 3 activity was measured by FACS analysis. G: HT29 cells were treated as in A, followed by JC-1 staining and FACS analysis.
Human tissue samples were obtained from Singapore Tissue Network using protocols approved by institutional Review Board of National University of Singapore; informed consent was obtained from each individual who provided the tissues. The colorectal cancer cell lines and non-transformed cell lines used in this study were purchased from the American Type Culture Collection (Manassas, Va.). HCT116 cells with genetic disruption of DNMT1 (DNA methyltransferase 1) and DNMT3B (DNA methyltransferase 3B) (HCT116 DKO) were kindly provided by Dr. Bert Vogelstein (Johns Hopkins University, MD). For drug treatment, cells were seeded the day before the drug treatment. Cells were treated with 5 μM 3-Deazaneplanocin A (DZNep) (obtained from Dr. Victor E. Marquez at National Cancer Institute, USA) or 5 μM 5-aza-2′-deoxycytidine (5-AzaC; Sigma) for 72 hours and Trichostatin A (TSA; Cell Signaling) at 100-200 nM for 24 hours. For 5-AzaC treatment, the medium was replaced with freshly added 5-AzaC for every 24 h. For co-treatment of cells with DZNep and TSA, DZNep was added for 24 hours followed by TSA for additional 24 hours for gene expression analysis and 48 hours for FACS analysis.
Immunoblotting was performed as described previously (Tan et al., 2007, supra). The blots were probed with the following antibodies: anti-H3K27me3 (07-449), anti-H3K9me3 (07-442), anti-H3K9/K14 ac (06-599), anti-H3K4me3 (07-473) and anti-active β-catenin(05-665), were purchased from Upstate. Anti-H4K20me3 (ab9053) was from Abcam. Anti-β-catenin (6B3) and anti-H3 (3H1) were from Cell Signaling and anti-DVL2 (sc-8026) was from Santa Cruz. […]

[3] = system: polycomb-repressive complex 2; conditions: Tan et al., 2007; cited from earlier work
in vivo = conditions: BALB/c nude, mouse, ip
[4] = Initial maximum tolerated dose (MTD) study of DZNep
[5] = format: in vivo
Protocol: FIG. 16. […]. The body weight was maintained at >80% in all groups. […].
For the HCT-116 study, nude mice that had received HCT-116 xenografts at day −7 were assigned into 4 groups of 7 animals each, and drug treatment was initiated on day 0 (see FIG. 1 for protocol outline): Group 1—vehicle control for both used compounds (Saline i.p. 3×/week in the morning, MC/Tween p.o. q.d. in the afternoon); Group 2—SAHA (200 mg/kg q.d. p.o. in the afternoon, plus the DZNep vehicle Saline 3/week i.p. in the morning); […]. The study was terminated on Day +14.
The study was conducted as using the protocol described in FIG. 15. The combination study was started using four groups of BALB/c nude mice bearing HCT-116 tumors (n=7 mice/group, initial mean tumor volume 6 days after inoculation: 91-107 mm^3). […]

Nc1ncn([C@H]2C[C@H](O)[C@@H](CO)O2)c(=O)n1 [5-AzaC, 5-aza-2′-deoxycytidine]
methylation at the DACT1 and DACT2 promoters [1]: decreased methylation | expression of SFRP1, DACT1, DACT2 and DACT3 [2]: increased expression of SFRP1, DACT1 and DACT2, but not DACT3

Nc1nccc2c1ncn2C1C=C(CO)C(O)C1O (stereo not drawn) [DZNep, 5-(4-amino-1H-imidazo[4,5-c]pyridin-1-yl)-3-(hydroxymethyl)-3-cyclopentene-1,2-diol]
H3K4me3 (bulk histone, Western blot) (histone modifications): slight decrease | H3K9me3 (bulk histone, Western blot) (histone modifications): little effect | H3K27me3 and H4K20me3 (bulk histone, Western blot) (histone modifications): strong reduction | DACT3 protein levels (DACT3, DVL2, β-catenin): did not cause such changes | DVL2 levels (DACT3, DVL2, β-catenin): did not cause such changes | effect on polycomb-repressive complex 2 and histone methylation [3]: depletes components of the polycomb-repressive complex 2 and inhibits histone methylation | MTD at 5 day (in vivo): 10 mg/kg | highest weight loss ([4]; 10 mg/kg group, day 2): 2.2% | deaths ([4]; 15 mg/kg group, day 3, in the absence of significant weight loss): Two of three mice died

CC(/C=C/C(=O)NO)=C\[C@@H](C)C(=O)c1ccc(N(C)C)cc1 [TSA, 7-[R-(E,E)]-[4-(dimethylamino)phenyl]-N-hydroxy-4,6-dimethyl-7-oxo-2,4-heptadienamide, reference compound]
DACT3 protein levels (DACT3, DVL2, β-catenin): did not cause such changes | DVL2 levels (DACT3, DVL2, β-catenin): did not cause such changes

O=C(CCCCCCC(=O)Nc1ccccc1)NO [SAHA, N′-hydroxy-N-phenyl-octanediamide]
treatment-related death (TRD) ([5]; day 10, body weight 82%, n=7/group): 1 | body weight ([5]; day 14, DZNep 5 mg/kg i.p. 3×/week, SAHA 200 mg/kg p.o. q.d., HCT-116 tumour-bearing mice): 96.8%
